{"source": "patent US20120264735A1", "about": "(priority 2009, published 2012)"}
{"target": "T1, c-Met kinase (recombinant c-Met) (Homo sapiens, UniProt P08581)", "T1 construct": "0.27 nM recombinant c-Met", "T1 sequence (P08581 25-1390)": "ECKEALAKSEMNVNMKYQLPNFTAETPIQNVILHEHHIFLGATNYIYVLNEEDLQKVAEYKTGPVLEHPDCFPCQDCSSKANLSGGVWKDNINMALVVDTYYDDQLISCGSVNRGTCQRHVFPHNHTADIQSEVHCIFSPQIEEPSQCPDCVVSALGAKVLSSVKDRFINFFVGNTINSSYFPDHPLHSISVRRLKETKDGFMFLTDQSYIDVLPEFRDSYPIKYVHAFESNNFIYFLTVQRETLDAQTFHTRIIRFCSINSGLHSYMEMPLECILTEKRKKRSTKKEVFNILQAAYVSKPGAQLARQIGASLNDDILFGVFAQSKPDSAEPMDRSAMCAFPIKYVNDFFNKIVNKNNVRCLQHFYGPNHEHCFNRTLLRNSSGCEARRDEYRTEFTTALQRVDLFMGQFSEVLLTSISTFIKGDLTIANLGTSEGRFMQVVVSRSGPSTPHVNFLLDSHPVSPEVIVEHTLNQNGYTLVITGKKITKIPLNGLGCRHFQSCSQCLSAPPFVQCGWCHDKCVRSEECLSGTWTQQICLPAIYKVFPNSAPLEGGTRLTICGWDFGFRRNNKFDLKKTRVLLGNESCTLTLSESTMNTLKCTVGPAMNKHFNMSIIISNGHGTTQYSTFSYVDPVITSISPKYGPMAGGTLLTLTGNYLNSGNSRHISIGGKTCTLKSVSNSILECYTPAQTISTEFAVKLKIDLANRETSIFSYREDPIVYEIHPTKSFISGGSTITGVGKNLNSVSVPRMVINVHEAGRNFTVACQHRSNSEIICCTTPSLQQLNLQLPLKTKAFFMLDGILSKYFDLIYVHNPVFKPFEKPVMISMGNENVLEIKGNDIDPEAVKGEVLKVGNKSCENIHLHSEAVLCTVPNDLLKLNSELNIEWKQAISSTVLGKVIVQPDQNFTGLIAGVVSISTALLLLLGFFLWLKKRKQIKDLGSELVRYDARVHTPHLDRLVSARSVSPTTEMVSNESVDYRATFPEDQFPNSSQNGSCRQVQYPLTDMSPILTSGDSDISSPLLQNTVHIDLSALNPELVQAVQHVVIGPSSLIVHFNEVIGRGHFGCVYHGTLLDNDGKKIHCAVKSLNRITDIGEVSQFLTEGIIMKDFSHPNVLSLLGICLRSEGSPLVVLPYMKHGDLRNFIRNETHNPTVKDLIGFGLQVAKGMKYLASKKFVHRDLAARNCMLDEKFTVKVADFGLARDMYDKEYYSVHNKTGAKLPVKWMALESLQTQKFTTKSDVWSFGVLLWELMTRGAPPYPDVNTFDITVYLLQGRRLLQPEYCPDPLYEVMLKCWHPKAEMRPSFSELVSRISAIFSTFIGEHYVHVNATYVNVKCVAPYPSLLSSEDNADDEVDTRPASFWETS", "test": "In vitro kinase assay I (homogeneous time-resolved fluorescence tyrosine kinase assay)", "type": "biochemical", "outline": "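Biotinylated peptide (0.5 μM) phosphorylated by 0.2 nM recombinant c-Met with 50 μM MgATP, 60 min at room temperature, pH 7.4, 5% DMSO. EDTA stop; HTRF read with Eu-anti-phosphotyrosine antibody and streptavidin-APC. IC50 from 4-parameter logistic fit.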", "units": {"IC50": "nM"}}
{"smiles": "COCCOc1cnc(-c2cccc(Cc3nn(-c4cnn(C)c4)cc(C)c3=O)c2)nc1", "note": "[Example 750, 3-{3-[5-(2-Methoxyethoxy)pyrimidin-2-yl]benzyl}-5-methyl-1-(1-methyl-1H-pyrazol-4-yl)pyridazin-4(1H)-one]", "IC50": "< 100"}
{"smiles": "COCCOc1cnc(-c2cccc(Cc3nn(-c4cnn(C)c4F)cc(F)c3=O)c2)nc1", "note": "[Example 751, 5-Fluoro-1-(5-fluoro-1-methyl-1H-pyrazol-4-yl)-3-{3-[5-(2-methoxyethoxy)pyrimidin-2-yl]benzyl}pyridazin-4(1h)-one]", "IC50": "< 100"}
{"smiles": "O=c1ccn(-c2ccc(Cl)cc2)nc1Cc1ccc(O)cc1", "note": "[Example 754, 1-(4-Chlorophenyl)-3-(4-hydroxybenzyl)pyridazin-4(1H)-one]", "IC50": "100 to 1000"}
{"smiles": "CCOc1cnc(-c2cccc(Oc3nn(-c4cnn(C)c4)ccc3=O)c2)nc1", "note": "[Example 755, 3-[3-(5-Ethoxypyrimidin-2-yl)phenoxy]-1-(1-methyl-1H-pyrazol-4-yl)pyridazin-4(1H)-one]", "IC50": "1000 to 3000"}
{"smiles": "CCOc1cnc(-c2cccc(Sc3nn(-c4cnn(C)c4)ccc3=O)c2)nc1", "note": "[Example 756, 3-{[3-(5-Ethoxypyrimidin-2-yl)phenyl]sulfanyl}-1-(1-methyl-1H-pyrazol-4-yl)pyridazin-4(1H)-one]", "IC50": "1000 to 3000"}
{"smiles": "O=c1ccn(-c2cc(F)cc(F)c2)nc1Cc1cccc(-c2ncc(O)cn2)c1", "note": "[compound 189, 1-(3,5-difluorophenyl)-3-[3-(5-hydroxypyrimidin-2-yl)benzyl]pyridazin-4(1H)-one]", "IC50": "100 to 1000"}
{"smiles": "CCCn1cnc(-c2cccc(Cc3nn(-c4cnn(CCO)c4)ccc3=O)c2)n1", "note": "[compound 192, 1-[1-(2-hydroxyethyl)-1H-pyrazol-4-yl]-3-[3-(1-propyl-1H-1,2,4-triazol-3-yl)benzyl]pyridazin-4(1H)-one]", "IC50": "< 100"}
{"smiles": "Cn1cc(-n2ccc(=O)c(Cc3cccc(-c4ncc(CN5CCC(N)CC5)cn4)c3)n2)cn1", "note": "[compound 434, 3-(3-{5-[(4-aminopiperidin-1-yl)methyl]pyrimidin-2-yl}benzyl)-1-(1-methyl-1H-pyrazol-4-yl)pyridazin-4(1H)-one]", "IC50": "< 100"}
{"smiles": "COCCN(C)c1cnc(-c2cccc(Cc3nn(-c4cnn(C)c4)ccc3=O)c2)nc1", "note": "[compound 457, 3-(3-{5-[(2-methoxyethyl) (methyl)amino]pyrimidin-2-yl}benzyl)-1-(1-methyl-1H-pyrazol-4-yl)pyridazin-4(1H)-one]", "IC50": "< 100"}
{"smiles": "CCOc1cnc(-c2cccc(Cc3nn(-c4cnn(C)c4F)cc(F)c3=O)c2)nc1", "note": "[compound 752]", "IC50": "< 100"}
